Measured values published in patent US8338465B2, “Cyclic carboxylic acid rhodanine derivatives for the treatment and prevention of tuberculosis” (priority 2006, dated 2012).

Molecular target: T1, dihydrolipoamide acyltransferase (DlaT) (Mycobacterium tuberculosis, UniProt P9WIS7)
T1 sequence (P9WIS7 1-553): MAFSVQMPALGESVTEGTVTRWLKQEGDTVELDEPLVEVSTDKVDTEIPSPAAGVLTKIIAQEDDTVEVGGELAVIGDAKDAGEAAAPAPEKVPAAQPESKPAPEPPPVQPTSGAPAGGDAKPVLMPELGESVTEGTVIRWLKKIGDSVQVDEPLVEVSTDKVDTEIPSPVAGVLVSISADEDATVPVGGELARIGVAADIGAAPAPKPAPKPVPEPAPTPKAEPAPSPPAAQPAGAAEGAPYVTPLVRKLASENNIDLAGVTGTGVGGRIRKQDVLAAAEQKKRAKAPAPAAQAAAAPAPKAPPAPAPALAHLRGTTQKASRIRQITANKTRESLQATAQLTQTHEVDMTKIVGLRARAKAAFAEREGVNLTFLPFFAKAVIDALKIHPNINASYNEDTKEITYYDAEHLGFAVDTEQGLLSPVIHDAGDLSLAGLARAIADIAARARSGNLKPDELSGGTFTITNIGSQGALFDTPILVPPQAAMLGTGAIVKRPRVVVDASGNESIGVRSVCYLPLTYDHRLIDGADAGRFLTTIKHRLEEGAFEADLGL
Experiment: DlaT inhibition (Dlat IC50); DTNB peroxidase assay with Lpd, DlaT and AhpD
Assay type: biochemical
Details: Dlat IC50 category

First: O=C(O)C1CCCC(N2C(=O)C(=Cc3ccc(-c4ccccc4Cl)s3)SC2=S)C1 (stereo not drawn) [Compound C32, 3-{4-oxo-2-thioxo-5-[1-(5-(2-chloro-phenyl)-thiophen-2-yl)-methylidene]-thiazolidin-3-yl}-cyclohexanecarboxylic acid]
Second: O=C(O)C1CCCC(N2C(=O)C(=Cc3ccc(-c4ccccc4F)s3)SC2=S)C1 (stereo not drawn) [Compound C35, 3-{5-[1-[5-(2-fluoro-phenyl)-thiophen-2-yl]-methylidene]-4-oxo-2-thioxo-thiazolidin-3-yl}-cyclohexanecarboxylic acid]
The IC50 of the first is lower: less than 10 µM for the first, 11 to 40 µM for the second.

First: O=C(O)C1CCCC(N2C(=O)C(=Cc3ccccc3OCc3ccccc3Cl)SC2=S)C1 (stereo not drawn) [Compound C33, 3-{5-[2-(2-Chloro-benzyloxy)-benzylidene]-4-oxo-2-thioxo-thiazolidin-3-yl}-cyclohexanecarboxylic acid]
Second: O=C(O)C1CCCC(N2C(=O)C(=Cc3ccc(-c4ccccc4Oc4ccccc4)o3)SC2=S)C1 (stereo not drawn) [Compound C34, 3-{4-oxo-5-[1-[5-(2-phenoxy-phenyl)-furan-2-yl]-methylidene]-2-thioxo-thiazolidin-3-yl}-cyclohexanecarboxylic acid]
The IC50 of the first is higher: 11 to 40 µM for the first, less than 10 µM for the second.

CCc1ccc(-c2ccc(C=C3SC(=S)N(C4CCCC(C(=O)O)C4)C3=O)o2)cc1 (stereo not drawn) [Compound C36, 3-{5-[1-[5-(4-ethyl-phenyl)-furan-2-yl]-methylidene]-4-oxo-2-thioxo-thiazolidin-3-yl}-cyclohexanecarboxylic acid] and CCOc1ccc(-c2ccc(C=C3SC(=S)N(C4CCCC(C(=O)O)C4)C3=O)o2)cc1 (stereo not drawn) [Compound C51, 3-{5-[1-[5-(4-ethoxy-phenyl)-furan-2-yl]-methylidene]-4-oxo-2-thioxo-thiazolidin-3-yl}-cyclohexanecarboxylic acid] cannot be ordered by IC50: less than 10 µM for the first, less than 10 µM for the second.

First: O=C(O)C1CCCC(N2C(=O)C(=Cc3ccc(-c4ccc(C(F)(F)F)cc4)o3)SC2=S)C1 (stereo not drawn) [Compound C37, 3-{4-oxo-2-thioxo-5-[1-[5-(4-trifluoromethyl-phenyl)-furan-2-yl]-methylidene]-thiazolidin-3-yl}-cyclohexanecarboxylic acid]
Second: O=C(O)C1CCC(N2C(=O)C(=Cc3ccc(-c4ccc(C(F)(F)F)cc4)o3)SC2=S)CC1 (stereo not drawn) [Compound C55, 4-{4-oxo-2-thioxo-5-[1-[5-(4-trifluoromethyl-phenyl)-furan-2-yl]-methylidene]-thiazolidin-3-yl}-cyclohexanecarboxylic acid]
The IC50 of the first is lower: less than 10 µM for the first, 11 to 40 µM for the second.

O=C(O)C1CCCC(N2C(=O)C(=Cc3ccc(-c4cccc(-c5ccccc5)c4)o3)SC2=S)C1 (stereo not drawn) [Compound C38, 3-{5-[1-(5-biphenyl-3-yl-furan-2-yl)-methylidene]-4-oxo-2-thioxo-thiazolidin-3-yl}-cyclohexanecarboxylic acid] and O=C(O)C1CCCC(N2C(=O)C(=Cc3ccc(-c4cccc(CO)c4)o3)SC2=S)C1 (stereo not drawn) [Compound C42, 3-{5-[1-[5-(3-hydroxymethyl-phenyl)-furan-2-yl]-methylidene]-4-oxo-2-thioxo-thiazolidin-3-yl}-cyclohexanecarboxylic acid] cannot be ordered by IC50: less than 10 µM for the first, less than 10 µM for the second.

CC(=O)Nc1ccc(-c2ccc(C=C3SC(=S)N(C4CCCC(C(=O)O)C4)C3=O)o2)cc1 (stereo not drawn) [Compound C39, 3-{5-[5-(4-Acetylamino-phenyl)-furan-2-ylmethylene]-4-oxo-2-thioxo-thiazolidin-3-yl}-cyclohexanecarboxylic acid] and CC(=O)c1ccc(-c2ccc(C=C3SC(=S)N(C4CCCC(C(=O)O)C4)C3=O)o2)cc1 (stereo not drawn) [Compound C40, 3-{5-[1-[5-(4-acetyl-phenyl)-furan-2-yl]-methylidene]-4-oxo-2-thioxo-thiazolidin-3-yl}-cyclohexanecarboxylic acid] cannot be ordered by IC50: less than 10 µM for the first, less than 10 µM for the second.

O=C(O)C1CCCC(N2C(=O)C(=Cc3ccc(-c4ccccc4F)o3)SC2=S)C1 (stereo not drawn) [Compound C41, 3-{5-[1-[5-(2-fluoro-phenyl)-furan-2-yl]-methylidene]-4-oxo-2-thioxo-thiazolidin-3-yl}-cyclohexanecarboxylic acid] and Cc1ccccc1-c1ccc(C=C2SC(=S)N(C3CCCC(C(=O)O)C3)C2=O)o1 (stereo not drawn) [Compound C60, 3-{4-oxo-2-thioxo-5-[1-(5-o-tolyl-furan-2-yl)-methylidene]-thiazolidin-3-yl}-cyclohexanecarboxylic acid] cannot be ordered by IC50: less than 10 µM for the first, less than 10 µM for the second.

O=C(O)C1CCCC(N2C(=O)C(=Cc3ccc(-c4ccc(F)cc4)o3)SC2=S)C1 (stereo not drawn) [Compound C43, 3-{5-[1-[5-(4-fluoro-phenyl)-furan-2-yl]-methylidene]-4-oxo-2-thioxo-thiazolidin-3-yl}-cyclohexanecarboxylic acid] and O=C(O)C1CCCC(N2C(=O)C(=Cc3ccc(-c4ccc(Cl)cc4)o3)SC2=S)C1 (stereo not drawn) [Compound C56, 3-{5-[1-[5-(4-chloro-phenyl)-furan-2-yl]-methylidene]-4-oxo-2-thioxo-thiazolidin-3-yl}-cyclohexanecarboxylic acid] cannot be ordered by IC50: less than 10 µM for the first, less than 10 µM for the second.

O=C(O)C1CCC(N2C(=O)C(=Cc3ccc(-c4ccccc4F)o3)SC2=S)CC1 (stereo not drawn) [Compound C44, 4-{5-[1-[5-(2-fluoro-phenyl)-furan-2-yl]-methylidene]-4-oxo-2-thioxo-thiazolidin-3-yl}-cyclohexanecarboxylic acid] and CSc1ccccc1-c1ccc(C=C2SC(=S)N(C3CCC(C(=O)O)CC3)C2=O)o1 (stereo not drawn) [Compound C54, 4-{5-[1-[5-(2-methylsulfanyl-phenyl)-furan-2-yl]-methylidene]-4-oxo-2-thioxo-thiazolidin-3-yl}-cyclohexanecarboxylic acid] cannot be ordered by IC50: less than 10 µM for the first, less than 10 µM for the second.

Cc1ccc(-c2ccc(C=C3SC(=S)N(C4CCC(C(=O)O)CC4)C3=O)o2)cc1 (stereo not drawn) [Compound C45, 4-{4-oxo-2-thioxo-5-[1-(5-p-tolyl-furan-2-yl)-methylidene]-thiazolidin-3-yl}-cyclohexanecarboxylic acid] and CCOc1ccc(-c2ccc(C=C3SC(=S)N(C4CCC(C(=O)O)CC4)C3=O)o2)cc1 (stereo not drawn) [Compound C52, 4-{5-[1-[5-(4-ethoxy-phenyl)-furan-2-yl]-methylidene]-4-oxo-2-thioxo-thiazolidin-3-yl}-cyclohexanecarboxylic acid] cannot be ordered by IC50: less than 10 µM for the first, less than 10 µM for the second.

Compared with Cc1ccc(-c2ccc(C=C3SC(=S)N(C4CCC(C(=O)O)CC4)C3=O)o2)c(F)c1 (stereo not drawn) [Compound C46, 4-{5-[1-[5-(2-fluoro-4-methyl-phenyl)-furan-2-yl]-methylidene]-4-oxo-2-thioxo-thiazolidin-3-yl}-cyclohexanecarboxylic acid], Cc1ccccc1-c1ccc(C=C2SC(=S)N(C3CCC(C(=O)O)CC3)C2=O)o1 (stereo not drawn) [Compound C61, 4-{4-oxo-2-thioxo-5-[1-(5-o-tolyl-furan-2-yl)-methylidene]-thiazolidin-3-yl}-cyclohexanecarboxylic acid] is higher in IC50: less than 10 µM for the first, 11 to 40 µM for the second.

First: O=C(O)C1CCC(N2C(=O)C(=Cc3ccc(-c4ccccc4F)s3)SC2=S)CC1 (stereo not drawn) [Compound C47, 4-{5-[1-[5-(2-fluoro-phenyl)-thiophen-2-yl]-methylidene]-4-oxo-2-thioxo-thiazolidin-3-yl}-cyclohexanecarboxylic acid]
Second: CSc1cccc(-c2ccc(C=C3SC(=S)N(C4CCC(C(=O)O)CC4)C3=O)o2)c1 (stereo not drawn) [Compound C63, 4-{5-[1-[5-(3-methylsulfanyl-phenyl)-furan-2-yl]-methylidene]-4-oxo-2-thioxo-thiazolidin-3-yl}-cyclohexanecarboxylic acid]
The IC50 of the first is higher: 11 to 40 µM for the first, less than 10 µM for the second. The second is the more potent here.

COc1ccc(-c2ccc(C=C3SC(=S)N(C4CCC(C(=O)O)CC4)C3=O)o2)cc1F (stereo not drawn) [Compound C53, 4-{5-[1-[5-(3-fluoro-4-methoxy-phenyl)-furan-2-yl]-methylidene]-4-oxo-2-thioxo-thiazolidin-3-yl}-cyclohexanecarboxylic acid] and CS(=O)(=O)c1ccc(-c2ccc(C=C3SC(=S)N(C4CCC(C(=O)O)CC4)C3=O)o2)cc1 (stereo not drawn) [Compound C59, 4-{5-[5-(4-Methanesulfonyl-phenyl)-furan-2-ylmethylene]-4-oxo-2-thioxo-thiazolidin-3-yl}-cyclohexanecarboxylic acid] cannot be ordered by IC50: less than 10 µM for the first, less than 10 µM for the second.

Compared with CCCCOc1ccc(-c2ccc(C=C3SC(=S)N(C4CCC(C(=O)O)CC4)C3=O)o2)cc1 (stereo not drawn) [Compound C57, 4-{5-[1-[5-(4-butoxy-phenyl)-furan-2-yl]-methylidene]-4-oxo-2-thioxo-thiazolidin-3-yl}-cyclohexanecarboxylic acid], CSc1ccc(-c2ccc(C=C3SC(=S)N(C4CCCC(C(=O)O)C4)C3=O)o2)cc1 (stereo not drawn) [Compound C64, 3-{5-[1-[5-(4-methylsulfanyl-phenyl)-furan-2-yl]-methylidene]-4-oxo-2-thioxo-thiazolidin-3-yl}-cyclohexanecarboxylic acid] is lower in IC50: 11 to 40 µM for the first, less than 10 µM for the second.

CS(=O)(=O)c1ccc(-c2ccc(C=C3SC(=S)N(C4CCCC(C(=O)O)C4)C3=O)o2)cc1 (stereo not drawn) [Compound C58, 3-{5-[5-(4-Methanesulfonyl-phenyl)-furan-2-ylmethylene]-4-oxo-2-thioxo-thiazolidin-3-yl}-cyclohexanecarboxylic acid] and CSc1cccc(-c2ccc(C=C3SC(=S)N(C4CCCC(C(=O)O)C4)C3=O)o2)c1 (stereo not drawn) [Compound C62, 3-{5-[1-[5-(3-methylsulfanyl-phenyl)-furan-2-yl]-methylidene]-4-oxo-2-thioxo-thiazolidin-3-yl}-cyclohexanecarboxylic acid] cannot be ordered by IC50: less than 10 µM for the first, less than 10 µM for the second.
